{
  "source": "patent US20020042072A1",
  "about": "“Method for monitoring the effect of cancer therapies” (priority 2000, published 2002)",
  "key": {"NB-4": {"system": "NB-4", "settings": "NB-4, differentiation-sensitive clones; cited from earlier work"}, "NTERA-2": {"system": "NTERA-2", "settings": "NTERA-2, differentiation-sensitive clones; cited from earlier work"}, "[1]": {"system": "telomerase activity in A431 xenograft", "experiment": "Telomerase activity (TRAPeze ELISA) in A431 xenograft tumour material", "format": "in vivo, nu/nu mice", "procedure": "(§1) Human tumour cells KB (CCL-17) and A43 1 (CRL-1555) were obtained from ATCC and cultured in DMEM medium supplemented with 10% fetal calf serum, 10 mM HEPES, 50 μmol/l beta-mercaptoethanol and a standard complement of antibiotics.\n(§2) To establish subcutaneous tumours in nu/nu mice (5-6 week old female animals, supplied by Harlan, The Netherlands), cells were trypsinised, washed and suspended in phosphate-buffered physiological solution+10% fetal calf serum at 10^7 cells/ml. 100 μl cell suspension containing 10^6 cells were then injected subcutaneously into the right flank of the mice (one site per mouse). When tumours were well established and had reached diameters of more than 5-9 mm, mice were randomly distributed between treatment and the vehicle control group (7-10 days after cell injection). Test compounds (1 and 5 mg/ml) were dissolved and administered intragastically by gavage needle. Administration was once daily oral dosing in a volume of 10 ml/kg body weight. Tumour diameters were measured three times weekly with a caliper. Volumes (in mm^3) were calculated according to the formula: tumour volume=length*diameter^2*π/6.\n(§3) For measuring telomerase activity, the Oncor®, TRAPeze™ Elisa Telomerase Detection Kit was used. Tumour material surgically removed from mice was cleaned and frozen at −70° C. […]"}, "A431 xenograft": {"system": "A431 xenograft", "experiment": "Tumour growth of subcutaneous A431 xenograft", "format": "in vivo, nu/nu mice", "settings": "for % reduction of tumour growth: A431 xenograft; for tumor growth in vivo: oral administration, nu/nu mice xenografted with A43 1 or KB tumor cells", "procedure": "as §1, §2"}, "[2]": {"system": "telomerase activity in KB xenograft", "experiment": "Telomerase activity (TRAPeze ELISA) in KB xenograft tumour material", "format": "in vivo, nu/nu mice", "settings": "50 mg/kg once daily oral", "procedure": "as §1, §2, §3"}, "KB xenograft": {"system": "KB xenograft", "experiment": "Tumour growth of subcutaneous KB xenograft", "format": "in vivo, nu/nu mice", "settings": "50 mg/kg once daily oral", "procedure": "as §1, §2"}, "MCF-7": {"system": "MCF-7", "settings": "cited from earlier work"}, "MDA-MB23 1": {"system": "MDA-MB23 1", "settings": "cited from earlier work"}},
  "note": "Read-outs that look alike come from different tables or passages of the source.",
  "data": [
    {"smiles": "CC1=C(/C=C/C(C)=C/C=C/C(C)=C/C(=O)O)C(C)(C)CCC1", "note": "[all-trans-retinoic acid]", "values": [
      {"measurement": "telomerase activity", "setting": "NB-4", "value": "decline in telomerase activity"},
      {"measurement": "telomerase activity", "setting": "NTERA-2", "value": "decline in telomerase activity"}
    ]},
    {"smiles": "CC(=O)NCCCCCCNC(C)=O", "note": "[hexamethylene bisacetamide]", "values": [
      {"measurement": "telomerase activity", "setting": "NB-4", "value": "decline in telomerase activity"},
      {"measurement": "telomerase activity", "setting": "NTERA-2", "value": "decline in telomerase activity"}
    ]},
    {"smiles": "CC1(N)CCN(c2ncc3ncnc(Nc4ccc(F)c(Cl)c4)c3n2)CC1", "note": "[Inhibitor 2, 4-((3-chloro-4-fluoro-phenyl)amino)-6-(4-amino-4-methyl-1-piperidinyl)-pyrimido(5,4d)pyrimidine]", "values": [
      {"measurement": "% reduction of telomerase activity", "setting": "[1]; 10 mg/kg once daily oral", "value": 96, "unit": "%"},
      {"measurement": "% reduction of tumour growth", "setting": "A431 xenograft; 10 mg/kg once daily oral", "value": 90, "unit": "%"},
      {"measurement": "tumor growth in vivo", "setting": "A431 xenograft", "value": "inhibited tumor growth in vivo"}
    ]},
    {"smiles": "CN1CCC(Nc2ncc3ncnc(Nc4ccc(F)c(Cl)c4)c3n2)CC1", "note": "[Inhibitor 1, 4-((3-chloro-4-fluoro-phenyl)amino)-6-(1-methyl-4-piperidinyl-amino)-pyrimido(5,4d)pyrimidine]", "values": [
      {"measurement": "% reduction of telomerase activity", "setting": "[1]; 50 mg/kg once daily oral", "value": 100, "unit": "%"},
      {"measurement": "% reduction of tumour growth", "setting": "A431 xenograft; 50 mg/kg once daily oral", "value": 79, "unit": "%"},
      {"measurement": "tumor growth in vivo", "setting": "A431 xenograft", "value": "inhibited tumor growth in vivo"},
      {"measurement": "% reduction of telomerase activity", "setting": "[2]", "value": 6, "unit": "%"},
      {"measurement": "% reduction of tumour growth", "setting": "KB xenograft", "value": 51, "unit": "%"}
    ]},
    {"smiles": "CC/C(=C(\\c1ccccc1)c1ccc(OCCN(C)C)cc1)c1ccccc1", "note": "[tamoxifen]", "values": [
      {"measurement": "telomerase activity", "setting": "MCF-7; MCF-7, 10^−8M", "value": "repressive effect"},
      {"measurement": "telomerase activity", "setting": "MCF-7; MCF-7, higher (10^−7 and 10^−6M) or lower (10^−9M) concentrations", "value": "no effect"},
      {"measurement": "telomerase activity", "setting": "MDA-MB23 1; MDA-MB23 1, 10^−8M", "value": "repressive effect"},
      {"measurement": "telomerase activity", "setting": "MDA-MB23 1; MDA-MB23 1, higher (10^−7 and 10^−6M) or lower (10^−9M) concentrations", "value": "no effect"}
    ]}
  ]
}
